Data: patent US8232295B2, “Treating vascular events with statins by inhibiting PAR-1 and PAR-4” (Heartdrug Research, L.L.C., priority 2004, dated 2012)

How the values were obtained:
[1] = test system: platelet PAR-1/PAR-4 receptors (intact epitope); test: Whole blood flow cytometry with SPAN12 monoclonal antibody (nonactive, intact epitope) in statin-treated patients with coronary artery disease; format: in vivo, human; conditions: n = 10
Text: (§1) The study was designed as a prospective, single blinded, placebo controlled trial of 6 major statins currently available in the US. The study was approved by local institutional review boards. Written informed consent was obtained from all patients, who were informed of the strict compliance rules, and compensated for outpatient visits, and blood draws.
(§2) Blood samples were obtained with a 19-gauge needle by direct venipuncture and drawn into two 7-ml vacutainer tubes at room temperature containing 3.8% trisodium citrate. The vacutainer tube was filled to capacity and gently inverted 3 to 5 times to ensure complete mixing of the anticoagulant. The first 4-5 ml of blood were used for lipid profile analysis, or discharged. All samples were labeled with coded number and analyzed by blinded technicians. Platelet studies were performed at baseline as well as at Week 4, and Week 6.
(§3) The blood-citrate mixture (50 μl) was diluted with 450 μl Tris buffered saline (TBS) (10 mmol/l Tris, 0.15 mol/l sodium chloride) and mixed by inverting an Eppendorf tube gently two times. The appropriate antibody was then added (5 μl) and incubated at 37° C. for 30 minutes, after incubation, 400 μl of 2% buffered paraformaldehyde was added for fixation. The samples were analyzed on the FACScan flow cytometer (Becton Dickinson, San Diego, Calif.) calibrated to measure fluorescent light scatter. All parameters were collected using four-decade logarithmic amplification. The data were collected in list mode files and then analyzed. The surface expression of platelet receptors was determined by flow cytometry using the following monoclonal antibodies: cleaved (WEDE15), and intact (SPAN12) platelet thrombin PAR-1/PAR-4 receptors (Beckman Coulter, Brea, Calif.), and they were expressed as log mean fluorescence intensity.
(§4) The significance of differences between treatments arms was calculated by c2 and Fisher's exact tests for discrete variables, and Wilcoxon rank-sum test for continuous variables. The significance of differences between individual flow cytometric histograms was calculated using the Smirnov-Kolgomorov test incorporated in the CELLQuest' (San Diego, Calif.) software. Statistical analyses were performed using SPSS/E11.5 (SPSS, Inc., Chicago, Ill.). To control for any baseline differences analysis of variance was used. All p values are 2 sided.

[2] = test system: platelet PAR-1/PAR-4 receptors (cleaved epitope); test: Whole blood flow cytometry with WEDE15 monoclonal antibody (cleaved epitope) in statin-treated patients with coronary artery disease; format: in vivo, human; conditions: n = 10
Text: as §1, §2, §3, §4

[3] = Baseline (pretreatment), patients with coronary artery disease, mean ± SD
[4] = Week 4 of statin therapy, dose at physician discretion (Table 2), *p < 0.05
[5] = Week 6 of statin therapy, dose at physician discretion (Table 2), *p < 0.05

SMILES | SPAN-12-MoAbs (nonactive, intact epitope of PAR-1/PAR-4 receptors) receptor expression [1, 3] | SPAN-12-MoAbs (nonactive, intact epitope of PAR-1/PAR-4 receptors) receptor expression [1, 4] | SPAN-12-MoAbs (nonactive, intact epitope of PAR-1/PAR-4 receptors) receptor expression [1, 5] | WEDE15-MoAbs (a cleaved epitope of PAR-1/PAR-4 receptors) receptor expression [2, 3] | WEDE15-MoAbs (a cleaved epitope of PAR-1/PAR-4 receptors) receptor expression [2, 4] | WEDE15-MoAbs (a cleaved epitope of PAR-1/PAR-4 receptors) receptor expression [2, 5]
CC(C)c1c(C(=O)Nc2ccccc2)c(-c2ccccc2)c(-c2ccc(F)cc2)n1CC[C@@H](O)C[C@@H](O)CC(=O)O [Atorvastatin, atorvastatin] | 46.1 ± 8.3 Log mean fluorescence intensity | 39.5 ± 5.7 Log mean fluorescence intensity | 30.8 ± 4.0* Log mean fluorescence intensity | 27.5 ± 4.9 Log mean fluorescence intensity | 16.1 ± 5.8* Log mean fluorescence intensity | 18.0 ± 7.4* Log mean fluorescence intensity
CC[C@H](C)C(=O)O[C@H]1C[C@H](O)C=C2C=C[C@H](C)[C@H](CC[C@@H](O)C[C@@H](O)CC(=O)O)[C@H]21 [Pravastatin, pravastatin] | 50.3 ± 9.1 Log mean fluorescence intensity | 29.0 ± 6.7* Log mean fluorescence intensity | 32.6 ± 8.4* Log mean fluorescence intensity | 28.2 ± 4.4 Log mean fluorescence intensity | 16.9 ± 4.8* Log mean fluorescence intensity | 20.1 ± 6.6* Log mean fluorescence intensity
CC[C@H](C)C(=O)O[C@H]1C[C@@H](C)C=C2C=C[C@H](C)[C@H](CC[C@@H]3C[C@@H](O)CC(=O)O3)[C@H]21 [Lovastatin, lovastatin] | 40.6 ± 6.9 Log mean fluorescence intensity | 40.0 ± 8.1 Log mean fluorescence intensity | 31.1 ± 5.5* Log mean fluorescence intensity | 26.8 ± 4.9 Log mean fluorescence intensity | 18.4 ± 5.0* Log mean fluorescence intensity | 23.0 ± 6.3 Log mean fluorescence intensity
CC(C)n1c(/C=C/C(O)CC(O)CC(=O)O)c(-c2ccc(F)cc2)c2ccccc21 (stereo not drawn) [Fluvastatin, fluvastatin] | 42.8 ± 8.2 Log mean fluorescence intensity | 37.1 ± 7.3 Log mean fluorescence intensity | 29.9 ± 6.4* Log mean fluorescence intensity | 27.1 ± 5.9 Log mean fluorescence intensity | 18.0 ± 5.8* Log mean fluorescence intensity | 20.7 ± 4.1* Log mean fluorescence intensity
CC(C)c1nc(N(C)S(C)(=O)=O)nc(-c2ccc(F)cc2)c1/C=C/[C@@H](O)C[C@@H](O)CC(=O)O [Rosuvastatin, rosuvastatin] | 42.2 ± 9.4 Log mean fluorescence intensity | 33.6 ± 5.9 Log mean fluorescence intensity | 25.1 ± 7.0* Log mean fluorescence intensity | 30.1 ± 7.2 Log mean fluorescence intensity | 17.4 ± 5.5* Log mean fluorescence intensity | 22.6 ± 7.2* Log mean fluorescence intensity
CCC(C)(C)C(=O)O[C@H]1C[C@@H](C)C=C2C=C[C@H](C)[C@H](CC[C@@H]3C[C@@H](O)CC(=O)O3)[C@H]21 [Simvastatin, simvastatin] | 45.4 ± 7.0 Log mean fluorescence intensity | 26.5 ± 5.8* Log mean fluorescence intensity | 24.9 ± 6.2* Log mean fluorescence intensity | 29.0 ± 7.3 Log mean fluorescence intensity | 16.6 ± 5.5* Log mean fluorescence intensity | 23.4 ± 8.1 Log mean fluorescence intensity
